The test system of this assay is resistant strain of Pythium sp. Put plainly: In vitro sensitivity of a resistant strain of Pythium sp. (mycelium growth, optical density at 590 nm). Particulars: 168 h, 500 spores/mL, 7 days at 20° C., read-out: EC50 (effective concentration of the active ingredient which reduces the growth of the phytopathogen by 50%). It is filed as cell-based.

Each structure is given as a SMILES string. ≈ marks a conversion by molar mass, not a printed value.

In the case of `CCCCCCCCO` [octanol, octan-1-ol], the EC50 came out at 1.3 ng/mL (≈ 9.98 nM).

The values are drawn from US20170049100A1 (priority 2014, published 2017).
